Measured values taken from patent US10450364B2 (priority 2017, dated 2019).
Values joined by “and” are separate entries in the source; they are usually repeats but may differ in a detail not shown here. Equal entries are not always repeated. Where a SMILES comes first, the peptide text is derived from it. Bridges are numbered along the chain shown (N, C = ends). [ ]: non-standard residue; d: D form. The star is where a group is joined. Ileψ(thiazoline)Cys = CC[C@H](C)[C@H](N)C1=N[C@H](C(=O)*)CS1; dOrn = NCCC[C@@H](N)C(=O)O

Columns and labels:
C. perfringens = system: C. perfringens; parameters: species or system broiler chickens (Cobb 500); conditions: in vivo
Clostridium perfringens [1] = system: Clostridium perfringens; parameters: species or system broiler chickens (Cobb 500); conditions: in vivo
Clostridium perfringens [2] = format: in vivo, broiler chickens; conditions: subclinical NE
[3] = raw data of individual birds, 0.5% egg powder, cells marked * removed as outlier

CC[C@H](C)[C@H](N)C1=N[C@H](C(=O)N[C@@H](CC(C)C)C(=O)N[C@H](CCC(=O)O)C(=O)N[C@H](C(=O)N[C@H]2CCCCNC(=O)[C@H](CC(N)=O)NC(=O)[C@@H](CC(=O)O)NC(=O)[C@H](Cc3cnc[nH]3)NC(=O)[C@@H](Cc3ccccc3)NC(=O)[C@H]([C@@H](C)CC)NC(=O)[C@@H](CCCN)NC2=O)[C@@H](C)CC)CS1 [bacitracin] ({Ileψ(thiazoline)Cys}-L[dE]IK[dOrn]I[dF]H[dD]N; lactam 4-C)
% NE Mortality (C. perfringens): 9.4bc %
Feed Intake D 0-28 (C. perfringens): 6.708bcd
Lesion Score (0-3) (C. perfringens): 1.3 bc
Weight Gain D 0-28 (C. perfringens): 0.648bcd
% NE Mortality (Clostridium perfringens [1]): 10.9bcde %
Feed Intake D 0-28 (Clostridium perfringens [1]): 8.040bc
Lesion Score (0-3) (Clostridium perfringens [1]): 1.0bc
Weight Gain D 0-28 (Clostridium perfringens [1]): 0.590bcd

Virginiamycin
Weight gain (g) day 0-6 post challenge, Average (Clostridium perfringens [2]; group average, 0.5% egg powder): 226 g
Weight gain (g) day 0-11 post challenge, Average (Clostridium perfringens [2]; group average, 0.5% egg powder): 570 g
Lesion Score - day 2 post challenge, Average (Clostridium perfringens [2]; group average, egg powder 0.5% in feed (Vir 20 g/ton), scale 0 to 4): 0.5
Weight gain (g) day 0-6 post challenge (Clostridium perfringens [2]; [3]): 267 g and 211 g (2×) and 256 g and 252 g and 170 g and 213 g and 289 g and 162 g (2×) and 229 g and 241 g and 203 g and 157 g and 195 g and 238 g and 321 g and 233 g and 319 g and 182 g and 239 g
Weight gain (g) day 0-11 post challenge (Clostridium perfringens [2]; [3]): 618 g and 554 g and 520 g and 540 g and 467 g and 479 g and 544 g and 566 g and 420 g and 552 g and 607 g and 686 g and 568 g and 723 g and 709 g
Lesion Score - day 2 post challenge (Clostridium perfringens [2]; raw data of individual birds, egg powder 0.5% in feed (Vir 20 g/ton), scale 0 (none) to 4 (high)): 1 (3×) and 0 (3×)
